IC50 data for 26 compounds are collected here from patent publication US20240207263A1, “SELECTIVE MODULATORS OF ATAXIA TELA[…] (ATM) KINASE AND USES THEREOF” (priority 2021, published 2024).

Each structure is given as a SMILES string. Where two headings read alike, the source gives them in different places.

The target of the assay is ATM (Homo sapiens (Human), UniProt Q13315). In words: biochemical. The assay is classed as biochemical. The text has this: Assay a): ATM Biochemical Potency
Data was collected by Caliper.

ATM, sequence (Q13315 whole entry, looked up): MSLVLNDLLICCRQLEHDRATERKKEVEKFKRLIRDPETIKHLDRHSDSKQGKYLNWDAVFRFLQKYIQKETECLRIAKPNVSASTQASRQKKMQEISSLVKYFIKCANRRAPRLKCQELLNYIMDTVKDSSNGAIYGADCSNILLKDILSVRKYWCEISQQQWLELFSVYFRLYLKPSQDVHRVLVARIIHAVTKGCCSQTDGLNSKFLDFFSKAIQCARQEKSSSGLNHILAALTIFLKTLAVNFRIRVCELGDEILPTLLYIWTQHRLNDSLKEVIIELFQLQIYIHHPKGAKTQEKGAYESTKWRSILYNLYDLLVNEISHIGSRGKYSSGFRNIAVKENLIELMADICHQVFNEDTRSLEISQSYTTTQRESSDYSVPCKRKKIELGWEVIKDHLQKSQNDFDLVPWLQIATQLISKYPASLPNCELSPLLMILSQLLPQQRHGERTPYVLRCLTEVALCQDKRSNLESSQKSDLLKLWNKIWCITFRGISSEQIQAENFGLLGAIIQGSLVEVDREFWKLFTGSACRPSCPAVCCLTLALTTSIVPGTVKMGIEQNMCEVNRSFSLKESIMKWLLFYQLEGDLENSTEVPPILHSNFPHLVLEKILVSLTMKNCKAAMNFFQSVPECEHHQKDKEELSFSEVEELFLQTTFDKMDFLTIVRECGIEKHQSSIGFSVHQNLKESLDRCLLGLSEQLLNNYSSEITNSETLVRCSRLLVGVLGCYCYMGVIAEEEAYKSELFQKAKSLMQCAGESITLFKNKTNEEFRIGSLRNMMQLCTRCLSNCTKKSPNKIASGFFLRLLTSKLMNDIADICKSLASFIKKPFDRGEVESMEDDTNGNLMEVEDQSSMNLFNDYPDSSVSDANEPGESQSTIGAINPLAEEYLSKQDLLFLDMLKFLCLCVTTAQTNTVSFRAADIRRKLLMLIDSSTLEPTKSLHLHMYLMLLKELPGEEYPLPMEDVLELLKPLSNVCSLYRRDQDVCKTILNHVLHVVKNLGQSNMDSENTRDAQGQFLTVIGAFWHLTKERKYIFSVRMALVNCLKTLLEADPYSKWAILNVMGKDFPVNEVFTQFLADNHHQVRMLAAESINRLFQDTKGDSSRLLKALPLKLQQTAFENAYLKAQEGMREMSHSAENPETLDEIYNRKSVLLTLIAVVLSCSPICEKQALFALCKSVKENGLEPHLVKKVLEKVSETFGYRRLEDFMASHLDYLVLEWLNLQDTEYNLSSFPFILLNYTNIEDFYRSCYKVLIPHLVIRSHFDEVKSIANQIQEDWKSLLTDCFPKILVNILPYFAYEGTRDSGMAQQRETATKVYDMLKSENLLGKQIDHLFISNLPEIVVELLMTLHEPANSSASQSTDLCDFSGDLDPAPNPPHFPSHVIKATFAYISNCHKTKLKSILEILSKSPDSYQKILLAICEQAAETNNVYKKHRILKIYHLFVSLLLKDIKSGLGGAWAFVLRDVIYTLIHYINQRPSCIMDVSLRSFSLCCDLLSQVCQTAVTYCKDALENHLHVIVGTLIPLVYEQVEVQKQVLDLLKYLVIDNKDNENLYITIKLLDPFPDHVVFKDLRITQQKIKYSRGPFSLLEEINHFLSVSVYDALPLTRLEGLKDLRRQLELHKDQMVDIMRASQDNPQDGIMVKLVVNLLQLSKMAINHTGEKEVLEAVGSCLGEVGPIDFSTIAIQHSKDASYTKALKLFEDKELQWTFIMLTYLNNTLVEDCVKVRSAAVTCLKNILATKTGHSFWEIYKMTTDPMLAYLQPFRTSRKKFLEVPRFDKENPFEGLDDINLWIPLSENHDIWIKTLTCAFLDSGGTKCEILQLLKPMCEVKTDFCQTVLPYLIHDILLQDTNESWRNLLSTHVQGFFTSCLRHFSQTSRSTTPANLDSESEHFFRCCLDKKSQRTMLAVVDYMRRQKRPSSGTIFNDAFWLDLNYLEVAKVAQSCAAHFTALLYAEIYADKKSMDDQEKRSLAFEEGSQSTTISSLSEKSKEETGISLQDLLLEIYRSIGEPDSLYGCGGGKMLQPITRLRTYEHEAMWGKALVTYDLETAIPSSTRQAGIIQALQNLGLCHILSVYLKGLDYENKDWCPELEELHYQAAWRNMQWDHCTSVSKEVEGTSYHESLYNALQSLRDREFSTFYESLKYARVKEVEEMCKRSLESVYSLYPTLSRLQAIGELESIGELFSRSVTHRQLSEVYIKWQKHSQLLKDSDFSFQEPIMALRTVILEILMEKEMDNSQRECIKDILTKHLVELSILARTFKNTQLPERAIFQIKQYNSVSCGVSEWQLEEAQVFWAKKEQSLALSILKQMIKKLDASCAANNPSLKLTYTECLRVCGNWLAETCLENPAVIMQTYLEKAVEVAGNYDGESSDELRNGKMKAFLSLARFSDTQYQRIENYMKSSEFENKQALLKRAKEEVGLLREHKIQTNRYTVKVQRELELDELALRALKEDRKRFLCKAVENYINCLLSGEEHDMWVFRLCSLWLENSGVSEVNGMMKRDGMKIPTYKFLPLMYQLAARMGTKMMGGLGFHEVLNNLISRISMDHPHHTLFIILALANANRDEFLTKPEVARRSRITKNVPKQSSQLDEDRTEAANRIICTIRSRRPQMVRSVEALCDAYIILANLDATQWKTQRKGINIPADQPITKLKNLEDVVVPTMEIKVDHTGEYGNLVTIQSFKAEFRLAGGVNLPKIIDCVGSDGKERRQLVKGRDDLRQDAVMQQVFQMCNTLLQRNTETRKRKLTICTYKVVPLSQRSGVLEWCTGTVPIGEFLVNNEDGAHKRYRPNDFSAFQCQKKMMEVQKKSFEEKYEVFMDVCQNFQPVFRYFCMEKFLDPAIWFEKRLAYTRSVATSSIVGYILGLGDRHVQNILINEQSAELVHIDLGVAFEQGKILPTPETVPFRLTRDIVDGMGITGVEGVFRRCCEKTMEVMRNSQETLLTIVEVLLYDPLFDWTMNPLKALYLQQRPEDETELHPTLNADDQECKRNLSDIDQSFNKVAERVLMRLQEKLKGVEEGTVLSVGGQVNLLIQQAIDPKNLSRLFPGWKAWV

Broadly, the IC50 is the concentration needed to halve the response being measured. Take `CC(C)O[C@@H]1CCN(CCO[C@H](C)c2ccc(-c3ccc4nnc5c(c4c3)n(C3CCOCC3)c(=O)n5C)cn2)C1` [Example 113, 8-(6-((R)-1-(2-((R)-3-isopropoxypyrrolidin-1-yl)ethoxy)ethyl)pyridin-3-yl)-3-methyl-1-(tetrahydro-2H-pyran-4-yl)-1H-imidazo[4,5-c]cinnolin-2(3H)-one]: the IC50 (read-out: ATM IC50) is 7.5 nM.
Compound `C[C@@H](OCCN1CCC2(COC2)C1)c1ccc(-c2ccc3nnc4c(c3c2)n(C2CCOCC2)c(=O)n4C)cn1` [Example 116, (R)-8-(6-(1-(2-(2-oxa-6-azaspiro[3.4]octan-6-yl)ethoxy)ethyl)pyridin-3-yl)-3-methyl-1-(tetrahydro-2H-pyran-4-yl)-1H-imidazo[4,5-c]cinnolin-2(3H)-one] yielded an IC50 of 2.9 nM.
In the case of `COC[C@@H]1CCN(CCO[C@H](C)c2ccc(-c3ccc4nnc5c(c4c3)n(C3CCOCC3)c(=O)n5C)cn2)C1` [Example 119, 8-(6-((R)-1-(2-((R)-3-(methoxymethyl)pyrrolidin-1-yl)ethoxy)ethyl)pyridin-3-yl)-3-methyl-1-(tetrahydro-2H-pyran-4-yl)-1H-imidazo[4,5-c]cinnolin-2(3H)-one], under “read-out: ATM IC50”, the IC50 stood at 2.4 nM.
As for `C[C@@H](OCCN1CCCCC1)c1ccc(-c2ccc3nnc4c(c3c2)n(C2CCOCC2)c(=O)n4C)cn1` [Example 120, (R)-3-methyl-8-(6-(1-(2-(piperidin-1-yl)ethoxy)ethyl)pyridin-3-yl)-1-(tetrahydro-2H-pyran-4-yl)-1H-imidazo[4,5-c]cinnolin-2(3H)-one], the IC50 (read-out: ATM IC50) is 11 nM.
As for `C[C@@H](OCCN1CCCC1)c1ccc(-c2ccc3nnc4c(c3c2)n(C2CCOCC2)c(=O)n4C)cn1` [Example 121, (R)-3-methyl-8-(6-(1-(2-(pyrrolidin-1-yl)ethoxy)ethyl)pyridin-3-yl)-1-(tetrahydro-2H-pyran-4-yl)-1H-imidazo[4,5-c]cinnolin-2(3H)-one], under “read-out: ATM IC50”, the IC50 was determined as 13 nM.
Still for that read-out and setting: next, `C[C@@H](OCCN1CC[C@@H](OC2CC2)C1)c1ccc(-c2ccc3nnc4c(c3c2)n(C2CCOCC2)c(=O)n4C)cn1` [Example 122, 8-(6-((R)-1-(2-((R)-3-cyclopropoxypyrrolidin-1-yl)ethoxy)ethyl)pyridin-3-yl)-3-methyl-1-(tetrahydro-2H-pyran-4-yl)-1H-imidazo[4,5-c]cinnolin-2(3H)-one]: 4.3 nM; `C[C@@H]1CCN(CCO[C@H](C)c2ccc(-c3ccc4nnc5c(c4c3)n(C3CCOCC3)c(=O)n5C)cn2)C1` [Example 123, 3-methyl-8-(6-((R)-1-(2-((R)-3-methylpyrrolidin-1-y)ethoxy)ethyl)pyridin-3-yl)-1-(tetrahydro-2H-pyran-4-yl)-1H-imidazo[4,5-c]cinnolin-2(3H)-one]: 16 nM; `C[C@@H](OCCN1CCC2(CCC2)CC1)c1ccc(-c2ccc3nnc4c(c3c2)n(C2CCOCC2)c(=O)n4C)cn1` [Example 124, (R)-8-(6-(1-(2-(7-azaspiro[3.5]nonan-7-yl)ethoxy)ethyl)pyridin-3-yl)-3-methyl-1-(tetrahydro-2H-pyran-4-yl)-1H-imidazo[4,5-c]cinnolin-2(3H)-one]: 1.1 nM.
`C[C@@H](OCCN1CCC2(CCO2)CC1)c1ccc(-c2ccc3nnc4c(c3c2)n(C2CCOCC2)c(=O)n4C)cn1` [Example 125, (R)-8-(6-(1-(2-(1-oxa-7-azaspiro[3.5]nonan-7-yl)ethoxy)ethyl)pyridin-3-yl)-3-methyl-1-(tetrahydro-2H-pyran-4-yl)-1H-imidazo[4,5-c]cinnolin-2(3H)-one]: the IC50 (read-out: ATM IC50) was determined as 6.3 nM.
In the case of `C[C@H]1CCN(CCO[C@H](C)c2ccc(-c3ccc4nnc5c(c4c3)n(C3CCOCC3)c(=O)n5C)cn2)C1` [Example 126, 3-methyl-8-(6-((R)-1-(2-((S)-3-methylpyrrolidin-1-yl)ethoxy)ethyl)pyridin-3-yl)-1-(tetrahydro-2H-pyran-4-yl)-1H-imidazo[4,5-c]cinnolin-2(3H)-one], the half-maximal inhibitory concentration (IC50) (read-out: ATM IC50) was 20 nM.
Same read-out and setting: next, `C[C@@H](OCCN1CC2(COC2)C1)c1ccc(-c2ccc3nnc4c(c3c2)n(C2CCOCC2)c(=O)n4C)cn1` [Example 127, (R)-8-(6-(1-(2-(2-oxa-6-azaspiro[3.3]heptan-6-yl)ethoxy)ethyl)pyridin-3-yl)-3-methyl-1-(tetrahydro-2H-pyran-4-yl)-1H-imidazo[4,5-c]cinnolin-2(3H)-one]: 13 nM.
On to `C[C@@H](OCCN1CCC(C2COC2)CC1)c1ccc(-c2ccc3nnc4c(c3c2)n(C2CCOCC2)c(=O)n4C)cn1` [Example 128, (R)-3-methyl-8-(6-(1-(2-(4-(oxetan-3-yl)piperidin-1-yl)ethoxy)ethyl)pyridin-3-yl)-1-(tetrahydro-2H-pyran-4-yl)-1H-imidazo[4,5-c]cinnolin-2(3H)-one], for which the IC50 (read-out: ATM IC50) was 4.6 nM.
The same measure, in the same setting: the value for `C[C@@H](OCCN1CCC(C)(C#N)C1)c1ccc(-c2ccc3nnc4c(c3c2)n(C2CCOCC2)c(=O)n4C)cn1` (stereo partly drawn) [Example 130, 3-methyl-1-(2-((R)-1-(5-(3-methyl-2-oxo-1-(tetrahydro-2H-pyran-4-yl)-2,3-dihydro-1H-imidazo[4.5-c]cinnolin-8-yl)pyridin-2-yl)ethoxy)ethyl) pyrrolidine-3-carbonitrile] was 26 nM; that for `CC(C)n1c(=O)n(C)c2nnc3cc(F)c(-c4ccc(COCCN5CCC(C)(C)C5)nc4)cc3c21` [Example 132, 8-(6-((2-(3,3-dimethylpyrrolidin-1-yl)ethoxy)methyl)pyridin-3-yl)-7-fluoro-1-isopropyl-3-methyl-1H-imidazo[4,5-c]cinnolin-2(3H)-one] was 22 nM.
`CC(C)n1c(=O)n(C)c2nnc3cc(F)c(-c4ccc([C@@H](C)OCCN5CCC(F)CC5)nc4)cc3c21` [Example 136, (R)-7-fluoro-8-(6-(1-(2-(4-fluoropiperidin-1-yl)ethoxy)ethyl)pyridin-3-yl)-1-isopropyl-3-methyl-1,3-dihydro-2H-imidazo[4,5-c]cinnolin-2-one]: where the note is “read-out: ATM IC50”, the half-inhibitory concentration (IC50) was found to be 10 nM.
Turning to `CO[C@H]1CCN(CCO[C@H](C)c2ccc(-c3cc4c(cc3F)nnc3c4n(C(C)C)c(=O)n3C)cn2)C1` [Example 138, 7-fluoro-1-isopropyl-8-(6-((R)-1-(2-((S)-3-methoxypyrrolidin-1-yl)ethoxy)ethyl)pyridin-3-yl)-3-methyl-1H-imidazo[4,5-c]cinnolin-2(3H)-one], where the note is “read-out: ATM IC50”, the IC50 is 14 nM.
Take `CC(C)n1c(=O)n(C)c2nnc3cc(F)c(-c4ccc([C@@H](C)OCCN5CCC(C)(C)CC5)nc4)cc3c21` [Example 139, (R)-8-(6-(1-(2-(4,4-dimethylpiperidin-1-yl)ethoxy)ethyl)pyridin-3-yl)-7-fluoro-1-isopropyl-3-methyl-1H-imidazo[4,5-c]cinnolin-2(3H)-one]: the IC50 (read-out: ATM IC50) turned out to be 2.8 nM.
On to `CC(C)n1c(=O)n(C)c2nnc3cc(F)c(-c4ccc([C@@H](C)OCCN5CCC(OC(F)(F)F)C5)nc4)cc3c21` (stereo partly drawn) [Example 141, 7-fluoro-1-isopropyl-3-methyl-8-(6-((1R)-1-(2-(3-(trifluoromethoxy)pyrrolidin-1-yl)ethoxy)ethyl)pyridin-3-yl)-1H-imidazo[4,5-c]cinnolin-2(3H)-one], for which the IC50 (read-out: ATM IC50) was 6.3 nM.
With `CC(C)n1c(=O)n(C)c2nnc3cc(F)c(-c4ccc([C@@H](C)OCCN5CC6CC6C5)nc4)cc3c21` (stereo partly drawn) [Example 143, 8-(6-((1R)-1-(2-(3-azabicyclo[3.1.0]hexan-3-yl)ethoxy)ethyl)pyridin-3-yl)-7-fluoro-1-isopropyl-3-methyl-1H-imidazo[4,5-c]cinnolin-2(3H)-one], the 50% inhibitory concentration (IC50) (read-out: ATM IC50) came to 11 nM.
The same measure, in the same setting: next, `CC(C)n1c(=O)n(C)c2nnc3cc(F)c(-c4ccc([C@@H](C)OCCN5CCC(C)(C#N)C5)nc4)cc3c21` (stereo partly drawn) [Example 147, 1-(2-((R)-1-(5-(7-fluoro-1-isopropyl-3-methyl-2-oxo-2,3-dihydro-1H-imidazo[4,5-c]cinnolin-8-yl)pyridin-2-yl)ethoxy)ethyl)-3-methylpyrrolidine-3-carbonitrile]: 23 nM.
On to `C[C@@H](OCCN1CCC(C)(C)CC1)c1ccc(-c2cc3c(cc2F)nnc2c3n(C3CCOCC3)c(=O)n2C)cn1` [Example 149, (R)-8-(6-(1-(2-(4,4-dimethylpiperidin-1-yl)ethoxy)ethyl)pyridin-3-yl)-7-fluoro-3-methyl-1-(tetrahydro-2H-pyran-4-yl)-1H-imidazo[4,5-c]cinnolin-2(3H)-one], for which, where the note is “read-out: ATM IC50”, the IC50 was 15 nM.
`C[C@@H](OCCN1CCC2(CC1)CC2)c1ccc(-c2cc3c(cc2F)nnc2c3n(C3CCOCC3)c(=O)n2C)cn1` [Example 154, (R)-8-(6-(1-(2-(6-azaspiro[2.5]octan-6-yl)ethoxy)ethyl)pyridin-3-yl)-7-fluoro-3-methyl-1-(tetrahydro-2H-pyran-4-yl)-1H-imidazo[4,5-c]cinnolin-2(3H)-one]: where the note is “read-out: ATM IC50”, the IC50 turned out to be 3.6 nM.
`C[C@@H](OCCN1CC[C@@H](OC(F)F)C1)c1ccc(-c2cc3c(cc2F)nnc2c3n(C3CCOCC3)c(=O)n2C)cn1` [Example 155, 8-(6-((R)-1-(2-((R)-3-(difluoromethoxy)pyrrolidin-1-yl)ethoxy)ethyl)pyridin-3-yl)-7-fluoro-3-methyl-1-(tetrahydro-2H-pyran-4-yl)-1H-imidazo[4,5-c]cinnolin-2(3H)-one]: the IC50 (read-out: ATM IC50) turned out to be 11 nM.
`C[C@@H](OCCN1CCC2(CCC2)CC1)c1ccc(-c2cc3c(cc2F)nnc2c3n(C3CCOCC3)c(=O)n2C)cn1` [Example 156, (R)-8-(6-(1-(2-(7-azaspiro[3.5]nonan-7-yl)ethoxy)ethyl)pyridin-3-yl)-7-fluoro-3-methyl-1-(tetrahydro-2H-pyran-4-yl)-1H-imidazo[4,5-c]cinnolin-2(3H)-one]: the IC50 (read-out: ATM IC50) is 6 nM.
`CO[C@H]1C[C@H](n2c(=O)n(C)c3nnc4ccc(-c5ccc(COCCN6CCC7(CC7)C6)nc5)cc4c32)C1` [Example 159, 8-(6-((2-(5-azaspiro[2.4]heptan-5-yl)ethoxy)methyl)pyridin-3-yl)-1-(trans-3-methoxycyclobutyl)-3-methyl-1H-imidazo[4,5-c]cinnolin-2(3H)-one] registered an IC50 of 20.6 nM.
Regarding `CO[C@H]1C[C@H](n2c(=O)n(C)c3nnc4ccc(-c5ccc([C@@H](C)OCCN6CCC7(CC7)C6)nc5)cc4c32)C1` [Example 161, 8-(6-((R)-1-(2-(5-azaspiro[2.4]heptan-5-yl)ethoxy)ethyl)pyridin-3-yl)-1-(trans-3-methoxycyclobutyl)-3-methyl-1H-imidazo[4,5-c]cinnolin-2(3H)-one], the concentration for half-maximal inhibition (IC50) (read-out: ATM IC50) came to 3.4 nM.
